Results from US20090092740A1, “METHOD FOR INCREASING LONG-TERM STORAGE OF CUT FLOWERS” (GREENOY LTD., priority 2006, published 2009).

System: cut Rose Flowers (Akito and Red One varieties)
Conditions: several ppm in acrylic emulsion (tested 0.8 to 11.2 ppm); stored at 2° C. for one month; FIG. 1
Protocol: The flowers were dipped in several emulsions that included several concentration of STS (diluted from 8 g/l by taking from 0.1 to 1.4 ml per liter), ranging from 0.8 to 11.2 ppm. A bunch of roses, flowers and leaves, was dipped in the solution at each concentration for 2 seconds three times. Each treatment included 10 flowers. After the dip process, the flowers were put on a net for 10 minutes, so that an excess solution could drain off. The flowers were kept in an impregnation box at 2° C. for one month, and then they were allocated in vases for quality and shelf life assessments. The quality and appearance of the flowers were checked every day (FIG. 1).

Substance: silver thiosulfate
- quality of the stored roses: improves the quality of the stored roses
